# Laboratory results as given in patent publication US20220119354A1, “DIAMINO-SUBSTITUTED PYRIDINES AND PYRIMIDINES AS HERBICIDES” (FMC Corporation, priority 2019, published 2022).
# Key:
# Assay type in all cases: in vivo
# [1] = test system: ragweed (common ragweed, Ambrosia elatior); test: Test A postemergence, ragweed; details: 0 to 100 scale
# Method in brief: (§1)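 Seeds sown in loam–sand blend received a directed soil spray of test chemical in non-phytotoxic solvent with surfactant (preemergence); postemergence plants at 2–10 cm, one- to two-leaf stage, were sprayed with the same formulation. Injury rated visually versus untreated controls after ~10 d in greenhouse, 0–100 scale.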
# [2] = test system: foxtail, giant (Setaria faberii); test: Test A preemergence, giant foxtail; details: 0 to 100 scale; for Foxtail, Giant plant response rating: 0 is no effect, 100 is complete control
# Method in brief: as §1
# [3] = test system: rice (Oryza sativa); test: Test B flooded paddy test, rice; details: Flood, 250 g ai/ha, applied to paddy water, 2-leaf stage, visual evaluation after 13 to 15 d
# Method in brief: (§2)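 Plants grown to 2-leaf stage. Compounds applied directly into paddy water flooded 3 cm above soil, with that depth kept throughout. After 13–15 d in greenhouse, visual rating versus controls on a 0–100 scale (0 no effect, 100 complete control).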
# [4] = test system: blackgrass (Alopecurus myosuroides); test: Test A postemergence, blackgrass; details: 0 to 100 scale
# Method in brief: as §1
# [5] = test system: galium (catchweed bedstraw, Galium aparine); test: Test A postemergence, galium; details: 0 to 100 scale
# Method in brief: as §1
# [6] = test system: sedge, umbrella (small-flower umbrella sedge, Cyperus difformis); test: Test B flooded paddy test, umbrella sedge; details: Flood, 250 g ai/ha, applied to paddy water, 2-leaf stage, visual evaluation after 13 to 15 d
# Method in brief: as §2
# [7] = test system: corn (Zea mays); test: Test A postemergence, corn; details: 0 to 100 scale
# Method in brief: as §1
# [8] = test system: pigweed (Amaranthus retroflexus); test: Test A postemergence, pigweed; details: 0 to 100 scale
# Method in brief: as §1
# [9] = test system: wheat (Triticum aestivum); test: Test A postemergence, wheat; details: 0 to 100 scale
# Method in brief: as §1
# [10] = test system: kochia (Kochia scoparia); test: Test A postemergence, kochia; details: 0 to 100 scale
# Method in brief: as §1
# [11] = test system: pigweed (Amaranthus retroflexus); test: Test A preemergence, pigweed; details: 0 to 100 scale; for Pigweed plant response rating: 0 is no effect, 100 is complete control
# Method in brief: as §1
# [12] = test system: foxtail, giant (Setaria faberii); test: Test A postemergence, giant foxtail; details: 0 to 100 scale
# Method in brief: as §1
# [13] = test system: ducksalad (Heteranthera limosa); test: Test B flooded paddy test, ducksalad; details: Flood, 250 g ai/ha, applied to paddy water, 2-leaf stage, visual evaluation after 13 to 15 d
# Method in brief: as §2
# [14] = test system: barnyardgrass (Echinochloa crus-galli); test: Test B flooded paddy test, barnyardgrass; details: Flood, 250 g ai/ha, applied to paddy water, 2-leaf stage, visual evaluation after 13 to 15 d
# Method in brief: as §2
# [15] = test system: barnyardgrass (Echinochloa crus-galli); test: Test A postemergence, barnyardgrass; details: 0 to 100 scale
# Method in brief: as §1
# [16] = test system: ryegrass, Italian (Lolium multiflorum); test: Test A postemergence, Italian ryegrass; details: 0 to 100 scale
# Method in brief: as §1
# [17] = test system: kochia (Kochia scoparia); test: Test A preemergence, kochia; details: 0 to 100 scale; for Kochia plant response rating: 0 is no effect, 100 is complete control
# Method in brief: as §1
# [18] = test system: barnyardgrass (Echinochloa crus-galli); test: Test A preemergence, barnyardgrass; details: 0 to 100 scale; for Barnyardgrass plant response rating: 0 is no effect, 100 is complete control
# Method in brief: as §1
# [19] = test system: ragweed (common ragweed, Ambrosia elatior); test: Test A preemergence, ragweed; details: 0 to 100 scale; for Ragweed plant response rating: 0 is no effect, 100 is complete control
# Method in brief: as §1
# [20] = test system: ryegrass, Italian (Lolium multiflorum); test: Test A preemergence, Italian ryegrass; details: 0 to 100 scale; for Ryegrass, Italian plant response rating: 0 is no effect, 100 is complete control
# Method in brief: as §1
# [21] = 125 g ai/ha, 0 no effect, 100 complete control
# [22] = 500 g ai/ha, 0 is no effect, 100 is complete control
structure (smiles),measurement,setting,value
C[C@H](Nc1ncc(C(F)(F)F)c(N)n1)c1csc2ccccc12 [Compound 42],"Plant response rating, Ragweed",[1]; [21],30
same,Ragweed plant response rating,[1]; [22],0
same,"Foxtail, Giant plant response rating",[2]; 125 g ai/ha,0
same,"Foxtail, Giant plant response rating",[2]; 500 g ai/ha,0
same,"Plant response rating, Rice (0 to 100 scale, 0 is no effect, 100 is complete control)",[3],0
same,"Plant response rating, Blackgrass",[4]; [21],20
same,Blackgrass plant response rating,[4]; [22],0
same,"Plant response rating, Galium",[5]; [21],20
same,Galium plant response rating,[5]; [22],20
same,"Plant response rating, Sedge, Umbrella (0 to 100 scale, 0 is no effect, 100 is complete control)",[6],0
same,"Plant response rating, Corn",[7]; [21],0
same,Corn plant response rating,[7]; [22],0
same,"Plant response rating, Pigweed",[8]; [21],0
same,Pigweed plant response rating,[8]; [22],0
same,"Plant response rating, Wheat",[9]; [21],0
same,Wheat plant response rating,[9]; [22],0
same,"Plant response rating, Kochia",[10]; [21],0
same,Kochia plant response rating,[10]; [22],0
same,Pigweed plant response rating,[11]; 125 g ai/ha,0
same,Pigweed plant response rating,[11]; 500 g ai/ha,0
same,"Plant response rating, Foxtail, Giant",[12]; [21],0
same,"Foxtail, Giant plant response rating",[12]; [22],0
same,"Plant response rating, Ducksalad (0 to 100 scale, 0 is no effect, 100 is complete control)",[13],0
same,"Plant response rating, Barnyardgrass (0 to 100 scale, 0 is no effect, 100 is complete control)",[14],0
same,"Plant response rating, Barnyardgrass",[15]; [21],30
same,Barnyardgrass plant response rating,[15]; [22],0
same,"Plant response rating, Ryegrass, Italian",[16]; [21],0
same,"Ryegrass, Italian plant response rating",[16]; [22],0
same,Kochia plant response rating,[17]; 125 g ai/ha,0
same,Kochia plant response rating,[17]; 500 g ai/ha,0
same,Barnyardgrass plant response rating,[18]; 125 g ai/ha,0
same,Barnyardgrass plant response rating,[18]; 500 g ai/ha,0
same,Ragweed plant response rating,[19]; 125 g ai/ha,0
same,Ragweed plant response rating,[19]; 500 g ai/ha,0
same,"Ryegrass, Italian plant response rating",[20]; 125 g ai/ha,0
same,"Ryegrass, Italian plant response rating",[20]; 500 g ai/ha,0
CC(COc1cccc(C(F)(F)F)c1)Nc1ncc(C(F)(F)F)c(N)n1 (stereo not drawn) [Compound 34],"Plant response rating, Ragweed",[1]; 125 g ai/ha,0
same,"Plant response rating, Ragweed",[1]; 500 g ai/ha,0
same,"Foxtail, Giant plant response rating",[2]; 125 g ai/ha,50
same,"Plant response rating, Foxtail, Giant",[2]; 500 g ai/ha,90
same,"Plant response rating, Rice (0 to 100 scale, 0 is no effect, 100 is complete control)",[3],0
same,"Plant response rating, Blackgrass",[4]; 125 g ai/ha,0
same,"Plant response rating, Blackgrass",[4]; 500 g ai/ha,30
same,"Plant response rating, Galium",[5]; 125 g ai/ha,30
same,"Plant response rating, Galium",[5]; 500 g ai/ha,70
same,"Plant response rating, Sedge, Umbrella (0 to 100 scale, 0 is no effect, 100 is complete control)",[6],0
same,"Plant response rating, Corn",[7]; 125 g ai/ha,0
same,"Plant response rating, Corn",[7]; 500 g ai/ha,10
same,"Plant response rating, Pigweed",[8]; 125 g ai/ha,0
same,"Plant response rating, Pigweed",[8]; 500 g ai/ha,60
same,"Plant response rating, Wheat",[9]; 125 g ai/ha,0
same,"Plant response rating, Wheat",[9]; 500 g ai/ha,0
same,"Plant response rating, Kochia",[10]; 125 g ai/ha,30
same,"Plant response rating, Kochia",[10]; 500 g ai/ha,70
same,Pigweed plant response rating,[11]; 125 g ai/ha,10
same,"Plant response rating, Pigweed",[11]; 500 g ai/ha,90
same,"Plant response rating, Foxtail, Giant",[12]; 125 g ai/ha,0
same,"Plant response rating, Foxtail, Giant",[12]; 500 g ai/ha,30
same,"Plant response rating, Ducksalad (0 to 100 scale, 0 is no effect, 100 is complete control)",[13],0
same,"Plant response rating, Barnyardgrass (0 to 100 scale, 0 is no effect, 100 is complete control)",[14],0
same,"Plant response rating, Barnyardgrass",[15]; 125 g ai/ha,0
same,"Plant response rating, Barnyardgrass",[15]; 500 g ai/ha,20
same,"Plant response rating, Ryegrass, Italian",[16]; 125 g ai/ha,0
same,"Plant response rating, Ryegrass, Italian",[16]; 500 g ai/ha,60
same,Kochia plant response rating,[17]; 125 g ai/ha,0
same,"Plant response rating, Kochia",[17]; 500 g ai/ha,80
same,Barnyardgrass plant response rating,[18]; 125 g ai/ha,80
same,"Plant response rating, Barnyardgrass",[18]; 500 g ai/ha,100
same,Ragweed plant response rating,[19]; 125 g ai/ha,20
same,"Plant response rating, Ragweed",[19]; 500 g ai/ha,80
same,"Ryegrass, Italian plant response rating",[20]; 125 g ai/ha,0
same,"Plant response rating, Ryegrass, Italian",[20]; 500 g ai/ha,30
